Target: T1, hTSHR (Homo sapiens, UniProt P16473)
T1 construct: expressed in transfected cells
Experiment: hTSHR TR-FRET cAMP Assay (inhibition of M22-stimulated cAMP production)
Type: cell-based
Conditions: Expi293F Inducible cells stably expressing hTSHR; cAMP HTRF; stimulated with EC80 of anti-TSHR antibody M22; 15 min compound preincubation, 30 min at 37° C.; read-out: Activity (IC50 bins)
Procedure, shortened: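 Readout was a cAMP HTRF ratio of 655/620 nm after lysis, scaled between the EC80 M22 signal (0% inhibition) and no-agonist vehicle (100%). Frozen induced Expi293F-hTSHR cells saw test compounds (0.5% DMSO) for 15 min at 37 °C before 30 min of M22 stimulation at EC80.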

T1 sequence (P16473 21-764): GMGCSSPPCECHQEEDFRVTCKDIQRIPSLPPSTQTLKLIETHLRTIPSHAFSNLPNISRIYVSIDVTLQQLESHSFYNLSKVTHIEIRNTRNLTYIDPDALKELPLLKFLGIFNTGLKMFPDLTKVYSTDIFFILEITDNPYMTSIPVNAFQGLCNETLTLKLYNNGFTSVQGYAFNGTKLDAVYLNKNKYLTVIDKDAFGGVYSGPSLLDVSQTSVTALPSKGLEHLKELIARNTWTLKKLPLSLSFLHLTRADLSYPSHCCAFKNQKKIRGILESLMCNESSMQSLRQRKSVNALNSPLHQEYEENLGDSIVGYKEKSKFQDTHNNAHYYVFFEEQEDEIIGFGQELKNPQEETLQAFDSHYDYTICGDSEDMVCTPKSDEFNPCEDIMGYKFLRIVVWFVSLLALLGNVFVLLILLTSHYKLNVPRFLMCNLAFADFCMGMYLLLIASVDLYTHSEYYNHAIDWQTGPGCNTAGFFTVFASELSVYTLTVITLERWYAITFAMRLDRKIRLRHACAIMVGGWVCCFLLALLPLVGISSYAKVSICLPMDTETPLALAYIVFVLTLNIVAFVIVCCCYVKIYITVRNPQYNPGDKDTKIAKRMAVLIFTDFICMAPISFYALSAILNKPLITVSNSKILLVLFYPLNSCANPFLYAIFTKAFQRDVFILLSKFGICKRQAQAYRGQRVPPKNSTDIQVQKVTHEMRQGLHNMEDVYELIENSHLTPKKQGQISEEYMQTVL

| SMILES | IC50 [nM] |
| --- | --- |
| COc1cccc([C@H](C)n2c(=O)cnc3cc(NC(=O)NC(C)(C)C)ccc32)n1 [Example 144, (S)-1-(tert-butyl)-3-(1-(1-(6-methoxypyridin-2-yl)ethyl)-2-oxo-1,2-dihydroquinoxalin-6-yl)urea] | 100 to 1000 |
| C[C@@H](c1cccc(N(C)C)n1)n1c(=O)cnc2cc(NC(=O)NC(C)(C)C)ccc21 [Example 145, (S)-1-(tert-butyl)-3-(1-(1-(6-(dimethyl-amino)pyridin-2-yl)ethyl)-2-oxo-1,2-dihydroquinoxalin-6-yl)urea] | 100 to 1000 |
| CC(O)c1cccc([C@H](C)n2c(=O)cnc3cc(NC(=O)NC(C)(C)C)ccc32)c1 (stereo partly drawn) [Example 146, 1-(tert-butyl)-3-(1-((1S)-1-(3-(1-hydroxy-ethyl)phenyl)eth-yl)-2-oxo-1,2-dihydroquinoxalin-6-yl)urea] | > 1000 |
| C[C@@H](c1cc(F)ccc1Cl)n1c(=O)cnc2cc(NC(=O)NC(C)(C)C)ccc21 [Example 147, (S)-1-(tert-butyl)-3-(1-(1-(2-chloro-5-fluorophenyl)ethyl)-2-oxo-1,2-dihydroquinoxalin-6-yl)urea] | 100 to 1000 |
| C[C@@H](c1cc(F)ccc1F)n1c(=O)cnc2cc(NC(=O)NC(C)(C)C)ccc21 [Example 148, (S)-1-(tert-butyl)-3-(1-(1-(2,5-difluorophenyl)ethyl)-2-oxo-1,2-dihydroquinoxalin-6-yl)urea] | 100 to 1000 |
| C[C@@H](c1cc(Cl)c(F)cc1F)n1c(=O)cnc2cc(NC(=O)NC(C)(C)C)ccc21 [Example 149, (S)-1-(tert-butyl)-3-(1-(1-(5-chloro-2,4-difluorophenyl)ethyl)-2-oxo-1,2-dihydroquinoxalin-6-yl)urea] | 100 to 1000 |
| C[C@@H](c1cccc(CC(F)(F)F)n1)n1c(=O)cnc2cc(NC(=O)NC(C)(C)C)ccc21 [Example 150, (S)-1-(tert-butyl)-3-(2-oxo-1-(1-(6-(2,2,2-trifluoroethyl)pyridin-2-yl)ethyl)-1,2-dihydroquinoxalin-6-yl)urea] | 100 to 1000 |
| C[C@@H](c1cc(OC(F)(F)F)c(F)cc1F)n1c(=O)cnc2cc(NC(=O)NC(C)(C)C)ccc21 [Example 151, (S)-1-(tert-butyl)-3-(1-(1-(2,4-difluoro-5-(trifluoromethoxy)phe-nyl)ethyl)-2-oxo-1,2-dihydroquinoxalin-6-yl)urea] | 100 to 1000 |
| C[C@@H](c1ccc2c(c1)OCCC2)n1c(=O)cnc2cc(NC(=O)NC(C)(C)C)ccc21 [Example 152, (S)-1-(tert-butyl)-3-(1-(1-(chroman-7-yl)ethyl)-2-oxo-1,2-dihydroquinoxalin-6-yl)urea] | > 1000 |
| C[C@@H](c1cccc([C@@H](O)C(F)(F)F)n1)n1c(=O)cnc2cc(NC(=O)NC(C)(C)C)ccc21 [Example 153] | 100 to 1000 |
| C[C@@H](c1cccc([C@@H](O)C(F)(F)F)c1)n1c(=O)cnc2cc(NC(=O)NC(C)(C)C)ccc21 [Example 155, 1-(tert-butyl)-3-(2-oxo-1-((S)-1-(3-((S)-2,2,2-trifluoro-1-hydroxyethyl)phe-nyl)ethyl)-1,2-dihydroquinoxalin-6-yl)urea] | 100 to 1000 |
| C[C@@H](c1cccc([C@H](O)C(F)(F)F)c1)n1c(=O)cnc2cc(NC(=O)NC(C)(C)C)ccc21 [Example 156, 1-(tert-butyl)-3-(2-oxo-1-((S)-1-(3-((R)-2,2,2-trifluoro-1-hydroxyethyl)phe-nyl)ethyl)-1,2-dihydroquinoxalin-6-yl)urea] | 100 to 1000 |
| C[C@H]1Oc2cc(NC(=O)NC(C)(C)C)ccc2N(Cc2cc(C(F)(F)F)ccn2)C1=O [Example 162, (R)-1-(tert-butyl)-3-(2-methyl-3-oxo-4-((4-(trifluoro-methyl)pyridin-2-yl)methyl)-3,4-dihydro-2H-benzo [b][1,4]oxazin-7-yl)urea] | 100 to 1000 |
| C[C@H]1Oc2cc(NC(=O)NC(C)(C)C)ccc2N(Cc2ccnc(C(F)(F)F)c2)C1=O [Example 163, (R)-1-(tert-butyl)-3-(2-methyl-3-oxo-4-((2-(trifluoro-methyl)pyridin-4-yl)methyl)-3,4-dihydro-2H-benzo [b][1,4]oxazin-7-yl)urea] | 100 to 1000 |
| COc1cccc(CN2C(=O)[C@@H](C)Oc3cc(NC(=O)NC(C)(C)C)ccc32)c1 [Example 164, (R)-1-(tert-butyl)-3-(4-(3-methoxy-benzyl)-2-methyl-3-oxo-3,4-dihydro-2H-benzo [b][1,4]oxazin-7-yl)urea] | 100 to 1000 |
| C[C@H]1Oc2cc(NC(=O)NC(C)(C)C)ccc2N(Cc2csc(C(F)(F)F)n2)C1=O [Example 165, (R)-1-(tert-butyl)-3-(2-methyl-3-oxo-4-((2-(trifluoro-methyl)thiazol-4-yl)methyl)-3,4-dihydro-2H-benzo [b][1,4]oxazin-7-yl)urea] | 100 to 1000 |
| C[C@H]1Oc2cc(NC(=O)NC(C)(C)C)ccc2N(Cc2ccnc(C(F)(F)F)n2)C1=O [Example 167, (R)-1-(tert-butyl)-3-(2-methyl-3-oxo-4-((2-(trifluoro-methyl)pyrimidin-4-yl)methyl)-3,4-dihydro-2H-benzo [b][1,4]oxazin-7-yl)urea] | 100 to 1000 |

Second part, the compound after the results:

| IC50 [nM] | SMILES |
| --- | --- |
| 100 to 1000 | C[C@@H](c1cccc(C2CC2)c1)n1c(=O)cnc2cc(NC(=O)NC(C)(C)C)ccc21 [Example 134, (S)-1-(tert-butyl)-3-(1-(1-(3-cyclopropylphenyl)eth-yl)-2-oxo-1,2-dihydroquinoxalin-6-yl)urea] |
| 100 to 1000 | C[C@@H](c1cccc(C2CCC2)c1)n1c(=O)cnc2cc(NC(=O)NC(C)(C)C)ccc21 [Example 135, (S)-1-(tert-butyl)-3-(1-(1-(3-cyclo-butylphenyl)ethyl)-2-oxo-1,2-dihydroquinoxalin-6-yl)urea] |
| 100 to 1000 | CC(C)c1cccc([C@H](C)n2c(=O)cnc3cc(NC(=O)NC(C)(C)C)ccc32)c1 [Example 136, (S)-1-(tert-butyl)-3-(1-(1-(3-iso-propylphenyl)ethyl)-2-oxo-1,2-dihydroquinoxalin-6-yl)urea] |
| 100 to 1000 | CC(C)Oc1cccc([C@H](C)n2c(=O)cnc3cc(NC(=O)NC(C)(C)C)ccc32)c1 [Example 137, (S)-1-(tert-butyl)-3-(1-(1-(3-isopropoxyphenyl)eth-yl)-2-oxo-1,2-dihydroquinoxalin-6-yl)urea] |
| 100 to 1000 | C[C@@H](c1cccc(C(C)(C)C)c1)n1c(=O)cnc2cc(NC(=O)NC(C)(C)C)ccc21 [Example 138, (S)-1-(tert-butyl)-3-(1-(1-(3-(tert-butyl)phenyl)ethyl)-2-oxo-1,2-dihydroquinoxalin-6-yl)urea] |
| 100 to 1000 | C[C@@H](c1cc(Cl)ccc1F)n1c(=O)cnc2cc(NC(=O)NC(C)(C)C)ccc21 [Example 139, (S)-1-(tert-butyl)-3-(1-(1-(5-chloro-2-fluorophenyl)ethyl)-2-oxo-1,2-dihydroquinoxalin-6-yl)urea] |
| 100 to 1000 | C[C@@H](c1c(F)cccc1F)n1c(=O)cnc2cc(NC(=O)NC(C)(C)C)ccc21 [Example 140, (S)-1-(tert-butyl)-3-(1-(1-(2,6-difluorophenyl)ethyl)-2-oxo-1,2-dihydroquinoxalin-6-yl)urea] |
| 100 to 1000 | Cc1ccc(Cl)cc1[C@H](C)n1c(=O)cnc2cc(NC(=O)NC(C)(C)C)ccc21 [Example 141, (S)-1-(tert-butyl)-3-(1-(1-(5-chloro-2-methylphenyl)ethyl)-2-oxo-1,2-dihydroquinoxalin-6-yl)urea] |
| 100 to 1000 | C[C@@H](c1cccc(Cl)c1Cl)n1c(=O)cnc2cc(NC(=O)NC(C)(C)C)ccc21 [Example 142, (S)-1-(tert-butyl)-3-(1-(1-(2,3-dichlorophenyl)ethyl)-2-oxo-1,2-dihydroquinoxalin-6-yl)urea] |
| 100 to 1000 | C[C@@H](c1cccc(C2CC2)n1)n1c(=O)cnc2cc(NC(=O)NC(C)(C)C)ccc21 [Example 143, (S)-1-(tert-butyl)-3-(1-(1-(6-cyclopropylpyridin-2-yl)ethyl)-2-oxo-1,2-dihydroquinoxalin-6-yl)urea] |
| < 100 | Cc1cccc(CN2C(=O)[C@@H](C)Oc3cc(NC(=O)NC(C)(C)C)ccc32)c1 [Example 157, 3-tert-butyl-1-[(2R)-2-methyl-4-[(3-methylphenyl)methyl]-3-oxo-2H-1,4-benzoxazin-7-yl]urea] |
| < 100 | C[C@H]1Oc2cc(NC(=O)NC(C)(C)C)ccc2N(Cc2cccc(C(F)F)c2)C1=O [Example 158, (R)-1-(tert-butyl)-3-(4-(3-(difluoro-methyl)benzyl)-2-methyl-3-oxo-3,4-dihydro-2H-benzo [b][1,4]oxazin-7-yl)urea] |
| < 100 | C[C@H]1Oc2cc(NC(=O)NC(C)(C)C)ccc2N(Cc2cccc(OC(F)(F)F)c2)C1=O [Example 159, (R)-1-(tert-butyl)-3-(2-methyl-3-oxo-4-(3-(trifluoro-methoxy)benzyl)-3,4-dihydro-2H-benzo [b][1,4]oxazin-7-yl)urea] |
| < 100 | C[C@H]1Oc2cc(NC(=O)NC(C)(C)C)ccc2N(Cc2cccc(OC(F)F)c2)C1=O [Example 160, (R)-1-(tert-butyl)-3-(4-(3-(difluoro-methoxy)benzyl)-2-methyl-3-oxo-3,4-dihydro-2H-benzo [b][1,4]oxazin-7-yl)urea] |
| < 100 | C[C@H]1Oc2cc(NC(=O)NC(C)(C)C)ccc2N(Cc2cccc(C(F)(F)F)n2)C1=O [Example 161, (R)-1-(tert-butyl)-3-(2-methyl-3-oxo-4-((6-(trifluoro-methyl)pyridin-2-yl)methyl)-3,4-dihydro-2H-benzo [b][1,4]oxazin-7-yl)urea] |
| < 100 | C[C@H]1Oc2cc(NC(=O)NC(C)(C)C)ccc2N(Cc2cccc(OC(F)(F)F)n2)C1=O [Example 166, (R)-1-(tert-butyl)-3-(2-methyl-3-oxo-4-((6-(trifluoro-methoxy)pyridin-2-yl)methyl)-3,4-dihydro-2H-benzo [b][1,4]oxazin-7-yl)urea] |

— patent US20260365628A1, “SUBSTITUTED 3,4-DIHYDROQUINOLINONE INHIBITORS OF TSHR” (Septerna, Inc., priority 2022, published 2026)
